Results taken from patent publication US20240316051A1, “A PHARMACEUTICAL COMBINATION AND USE THEREOF” (Ascentage Pharma (Suzhou) Co., Ltd., priority 2021, published 2024).
Each block holds one molecule with its values, some of them ahead of it.

Tests used:
LnCap prostate xenograft = assay: Subcutaneous LnCap prostate xenograft model (Example 25); assay type: in vivo, mice; details: day 17
Protocol: (§1) A subcutaneous xenograft tumor model of human tumor immunodeficient mice was established by cell inoculation: tumor cells in logarithmic growth phase were collected, counted, resuspended in 1×PBS, and the cell suspension concentration was adjusted to 2.5-5×10^7/mL. The tumor cells were inoculated subcutaneously in the right side of immunodeficient mice with a 1 ml syringe ([…]), 5-10×10^6/0.2 mL/mouse. All animal experiments were strictly in accordance with the specifications for the use and management of experimental animals in GenePharma Co., Ltd. and Suzhou Ascentage Pharma Co., Ltd. The calculation of relevant parameters refers to the Chinese NMPA “Guidelines for Non-Clinical Research Techniques of Cytotoxic Anti-tumor Drugs”.
(§2) Animal body weight and tumor size were measured twice weekly during the experiment. The state of the animal and the presence or absence of death were observed every day. The growth of tumor and the effects of treatment on normal behavior of animals were monitored routinely, specifically involving experimental animal activity, feeding and drinking, weight gain or loss, eyes, clothing hair and other abnormalities. The deaths and clinical symptoms observed during the experiment were recorded in the raw data. All operations for administration and measurement of mouse body weight and tumor volume were performed in a clean bench. According to the requirements of the experimental protocol, after the end of the last administration, plasma and tumor tissues were collected, weighed and photographed. The plasma and tumor samples were frozen at −80° C. for ready-to-use.
(§3) Tumor volume (TV) is calculated as: TV=a×b^2/2, wherein a and b represent the length and width of the tumor to be measured, respectively.
(§4) The relative tumor volume (RTV) is calculated as: RTV=Vt/V1, wherein V1 is the tumor volume at the start of grouping and administration, and Vt is the tumor volume measured on the t day after administration.
(§5) The evaluation index of anti-tumor activity is the relative tumor proliferation rate T/C (%), and the calculation formula thereof is: relative tumor proliferation rate T/C (%)=(TRTV/CRTV)×100%, TRTV is the RTV of treatment group, CRTV is the RTV of solvent control group.
(§6) A dose of drug is considered to be severely toxic if the body weight of mouse is reduced by more than 20% or the number of drug-related deaths exceeds 20%.
(§7) According to the description by Clarke R., Issues in experimental design and endpoint analysis in the study of experimental cytotoxic agents in vivo in breast cancer and other models [J]. Breast Cancer Research & Treatment, 1997, 46(2-3): 255-278, synergy analysis was evaluated using the following formula: synergy factor=((A/C)×(B/C))/(AB/C); A=RTV value of drug A alone group; B=RTV value of drug B alone group; C=RTV value of the solvent control group, and AB=RTV value of the A and B combination group.
(§8) In this experiment, subcutaneous LnCap prostate xenograft model was established to evaluate the anti-tumor effect of Compound 73 in combination with Compound C. The dosing regimen was as follows: • Compound C: 100 mg/kg, orally, every other day, for day 1-day 9; 50 mg/kg, orally, every other day, for day 10-day 28; • Compound 73: 100 mg/kg, orally, once per day, for a total of 28 days;
(§9) The dosing regimen of each drug in the dosing regimen for the combination is the same as the dosing regimen for the single drug, for a total of 28 days.

[1] = test system: NCI-H28(X1) (BAP1mut, UHRF1high, TP53WT, CDKN2Adel, FGFRlow, NF2WT) subcutaneous mesothelioma xenograft; assay: NCI-H28(X1) subcutaneous mesothelioma xenograft model (Example 23); assay type: in vivo, mice; details: Compound C 50 mg/kg orally every other day, Compound 73 100 mg/kg orally once per day, 28 days, alone or combined
Protocol: as §1, §2, §3, §4
The evaluation index of anti-tumor activity is the relative tumor proliferation rate T/C (%), and the calculation formula thereof is: relative tumor proliferation rate T/C (%)=(TRTV/CRTV)×100%, TRTV is the RTV of treatment group, CRTV is the RTV of solvent control group. […]
as §7, with “group. […]” for “group.”

[2] = test system: H226 (BAP1mut, UHRF1high, TP53WT, CDKN2Adel, FGFRhigh) subcutaneous mesothelioma xenograft; assay: H226 subcutaneous mesothelioma xenograft model (Example 22); assay type: in vivo, mice
Protocol: as §1, §2, §3, §4, §5
(§10) Change of body weight (%)=(measured body weight-body weight at the start of grouping)/body weight at the start of grouping×100%.
as §6
In this experiment, H226 (BAP1mut, UHRF1high, TP53WT, CDKN2Adel, FGFRhigh) subcutaneous mesothelioma xenograft model was established to evaluate the anti-tumor effect of Compound 73 in combination with Compound C. The dosing regimen was as follows: • Compound C: 50 mg/kg, orally, every other day, for a total of 39 days; • Compound 73: 50 mg/kg, orally, once per day, for a total of 39 days; • Compound 73: 100 mg/kg, orally, once per day, for a total of 39 days.

22RV1 prostate xenograft = assay: Subcutaneous 22RV1 prostate xenograft model (Example 24); assay type: in vivo, mice
Protocol: as §1, §2, §3, §4, §5, §10, §6, §7
as §8, with “22RV1” for “LnCap”, “a total of 28 days;” for “day 1-day 9; 50 mg/kg, orally, every other day, for day 10-day 28;”
as §9

[3] = test system: malignant pleural mesothelioma (MPM) PDX model (FGFR1high; BAP1mut); assay: Subcutaneous malignant pleural mesothelioma (MPM) PDX model (Example 20); assay type: in vivo, mice; details: Compound 73 100 mg/kg, Compound C 50 mg/kg, each orally every other day, 76 days; alone or combined
Protocol: as §1, §2, §3
(§11) The relative tumor volume (RTV) is calculated as: RTV=Vt/V1, wherein V1 is the tumor volume at the start of grouping and administration, and Vt is the tumor volume measured on the t day after administration. […]
Change of body weight (%)=(measured body weight-body weight at the start of grouping)/body weight at the start of grouping×100%. […]
as §7, with “group. […]” for “group.”

[4] = test system: BAP1 mut mesothelioma PDX model; assay: Subcutaneous BAP1 mut mesothelioma PDX model (Example 21); assay type: in vivo, mice; details: Compound 73 100 mg/kg orally once per day, Compound C 50 mg/kg orally every other day, 36 days; alone or combined
Protocol: as §1, §2, §3, §4, §5, §10, §6
In this experiment, subcutaneous BAP1 mut mesothelioma PDX model was established (Lide Biotech) to evaluate the anti-tumor effect of Compound 73 in combination with Compound C. […]

[5] = test system: NCI-H226 (BAP1mut, CDKN2Adel, FGFR high) xenograft; assay: NCI-H226 xenograft model (Examples 18-19); assay type: in vivo, mice; details: Compound 2-5 50 mg/kg, orally, once per day, 35 days
Protocol: as §1
as §2, with “All operations for administration and measurement of mouse body weight and tumor volume were performed in a clean bench. According to the requirements of the experimental protocol, after the end of the last administration, plasma and tumor tissues were collected, weighed and photographed.” left out
as §3, §11
Use of mRECIST (Gao et al., 2015) measured tumor responses included stable disease (SD), partial tumor regression (PR), and complete regression (CR), determined by comparing tumor volume change at day t to its baseline: tumor volume change (%)=(Vt−V1)/V1. […] For each time t, the average of tumor volume changes from t=1 to t was also calculated. […] Body weight of animals were monitored simultaneously. […]

[6] = test system: BAP1 mut mesothelioma PDX model; assay: BAP1 mut mesothelioma PDX model (Examples 15-17); assay type: in vivo, mice; details: Compound 2-5 50 mg/kg, orally, once per day, 28 days
Protocol: as §1, §2, §3, §4, §5, §6, §7
In this experiment, a BAP1 mut mesothelioma PDX model (Lide Biotech) was established to evaluate the anti-tumor effect of Compound 73. The dosing regimen was as follows: • Compound 73: 50 mg/kg, orally, once per day, for a total of 28 days; • Compound 73: 100 mg/kg, orally, once per day, for a total of 28 days;
In this experiment, a BAP1 mut mesothelioma PDX model (Lide Biotech) was established to evaluate the anti-tumor effect of Compound 73 in combination with Compound A-1. […]

EED (1-441)-His protein = biological target: T1, EED (1-441)-His protein (Homo sapiens, UniProt O75530); assay: EED-H3K27Me3 peptide competition binding assay by AlphaScreen; details: Table 4A, read-out: Alpha screen
T1 construct: 20 nM EED (1-441)-His protein
T1 sequence (O75530 whole entry): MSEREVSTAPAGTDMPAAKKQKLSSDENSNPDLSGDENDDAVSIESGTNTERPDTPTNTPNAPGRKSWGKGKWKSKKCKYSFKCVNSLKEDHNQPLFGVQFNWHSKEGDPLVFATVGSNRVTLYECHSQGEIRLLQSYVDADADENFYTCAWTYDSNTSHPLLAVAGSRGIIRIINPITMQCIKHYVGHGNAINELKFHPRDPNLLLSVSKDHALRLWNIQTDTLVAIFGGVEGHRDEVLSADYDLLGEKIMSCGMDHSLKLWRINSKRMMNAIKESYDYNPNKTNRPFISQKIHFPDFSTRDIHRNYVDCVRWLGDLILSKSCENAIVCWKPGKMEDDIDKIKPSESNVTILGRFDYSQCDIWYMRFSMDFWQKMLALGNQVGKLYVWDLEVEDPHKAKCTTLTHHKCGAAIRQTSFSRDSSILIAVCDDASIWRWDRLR
Outline: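 Readout was AlphaScreen emission at 615 nm after 680 nm excitation, with 10 μg/ml final each of streptavidin donor and nickel chelate acceptor beads, 1 h at RT in the dark. Beforehand, compound met the His-tagged EED(1-441) for 15 min and then biotinylated H3K27Me3(19-33) peptide for 30 min; both were added as 20 nM solutions, buffer 25 mM HEPES pH 8, Tween-20, BSA. Percent activity left was fitted to give IC50.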

[7] = test system: human B cell lymphoma cell KARPAS422; assay: Cell proliferation (WST-8), KARPAS422, 7 days; assay type: cell-based; details: KARPAS-422, 168 h, WST-8, Table 4A, read-out: Karpas Cell line
Protocol: (§12) Analysis of Cell Proliferation:
(§13) To assess the effect of PRC2 inhibition on cell growth, cells were seeded in 96-well cell culture plates at a density of 2 000-3 000 cells/well in 200 μL of culture medium, and treated with serially diluted compounds for 7 days at 37° C. in an atmosphere of 5% CO2. Cell growth was evaluated by a […] WST-8 assay (Dojindo Molecular Technologies) using a Tecan Infinite M1000 multimode microplate reader (Tecan, Morrisville, NC). The WST-8 reagent was added to the plate, incubated for 1-4 h, and read at 450 nm. The readings were normalized to the DMSO-treated cells, and the IC50 was calculated by nonlinear regression analysis using GraphPad Prism 6 software

Pfeiffer Cell line = assay: Cell proliferation, Pfeiffer cell line; assay type: cell-based; details: Homo sapiens, anti-proliferative IC50, Table 4A
Protocol: as §12, §13

Compound: CCN1[C@@H](C(=O)NC23CCC(C(=O)O)(CC2)CC3)[C@H](c2cccc(Cl)c2F)[C@]2(C(=O)Nc3cc(Cl)ccc32)C12CCCCC2 [Compound C]
- RTV@ D 17 (LnCap prostate xenograft; LnCap xenograft, Compound 73 100 mg/kg orally once per day, Compound C 100 mg/kg/50 mg/kg orally every other day): 2.57 ± 0.24
- T/C(%) @ D 17 (LnCap prostate xenograft; LnCap xenograft, Compound 73 100 mg/kg, Compound C 100 mg/kg/50 mg/kg): 57.46%
- T/C value (LnCap prostate xenograft; Compound C 100 mg/kg every other day day 1-9 then 50 mg/kg day 10-28, Compound 73 100 mg/kg once per day, orally, alone or combined): 57.46%
- T/C (%) @ D 29 [1]: 92.16%
- RTV@ D 29 ([1]; mean ± SEM): 14.06 ± 1.22
- T/C (%) @ D 39 ([2]; Compound C 50 mg/kg orally every other day, Compound 73 50 mg/kg orally once per day, alone or combined): 49.45%
- RTV @ D 39 ([2]; Compound C 50 mg/kg orally every other day, Compound 73 50 mg/kg orally once per day, alone or combined, mean ± SEM): 3.94 ± 0.69
- antitumor activity (in words) ([2]; single agents, 39 days (FIG. 10)): moderate antitumor activity
- RTV@ D 26 (22RV1 prostate xenograft; 22RV1 xenograft, day 26, Compound 73 100 mg/kg orally once per day, Compound C 50 mg/kg (table) orally every other day): 14.81 ± 4.35
- T/C(%) @ D 26 (22RV1 prostate xenograft; 22RV1 xenograft, day 26, Compound 73 100 mg/kg, Compound C 50 mg/kg (table)): 93.39%
- RTV@ D 29 (22RV1 prostate xenograft; 22RV1 xenograft, day 29): 18.54 ± 7.96
- T/C value (22RV1 prostate xenograft; day 26, Compound C 100 mg/kg orally every other day, Compound 73 100 mg/kg orally once per day, alone or combined): 93.39%
- RTV @ D 76 [3]: 3.47
- T/C (%) @ D 76 [3]: 60%
- RTV @ D 36 [4]: 8.04
- T/C (%) @ D 36 [4]: 55.17%

Compound: Cc1cc(Nc2ncc(Cl)c(Nc3ccccc3S(=O)(=O)C(C)C)n2)c(OC(C)C)cc1C1=CCN(C2CCOCC2)CC1 [Compound 2-5, 5-chloro-N^2-(2-isopropoxy-5-methyl-4-(1-(tetrahydro-2H-pyran-4-yl)-1,2,3,6-tetrahydropyridin-4-yl)phenyl)-N^4-(2-(isopropylsulfonyl)phenyl)pyrimidine-2,4-diamine]
- inhibition of tumor growth (in words) [5]: almost not effective in inhibiting tumor growth
- inhibition of tumor growth (in words) [6]: not effective in inhibiting tumor growth

- IC50 (EED (1-441)-His protein): 11.1 nM
- IC50 [7]: 8.67 nM
Compound: O=C1c2ncn3c(NCc4c(F)ccc5c4CCO5)ncc(c23)-c2sccc2CN1C1CC1 [Compound 87, 4-cyclopropyl-11-(((5-fluoro-2,3-dihydrobenzofuran-4-yl)methyl)amino)-4,5-dihydro-3H-8-thia-2,4, 10,11a-tetraazacyclopenta[4,5]cycloocta[1,2,3-cd] inden-3-one]
- IC50 (Pfeiffer Cell line): 0.018 nM
